According to patent publication US11254644B2, “Inhibitors of alpha-amino-beta-carboxymuconic acid semialdehyde decarboxylase” (TES Pharma S.r.l., priority 2014, dated 2022):

Experiments:
[1] = molecular target: hACMSD (ACMSD1) (Homo sapiens (Human), UniProt Q8TDX5); assay: Determination of ACMSD1 inhibition, spectrophotometrical in vitro assay; assay type: biochemical; settings: HAA concentration of 10 μM
Procedure: The activity of compounds as inhibitors of ACMSD1 is determined in a spectrophotometrical in vitro assay. The pre-assay mixture is incubated and a compound of Formula (I), Formula (Ia), Formula (Ib), Formula (II), or Formula (III), or a pharmaceutically acceptable salt thereof, and ACMSD1 solution is then added. The effect of ACMS concentration on the enzyme activity is investigated by varying 3-hydroxyanthranilic acid (3OH-HA) concentration in the pre-assay mixture. Kinetic parameters are calculated from the initial velocity data using a Lineweaver-Burk plot.
The activity of compounds 1-19 and 21-23 as inhibitors of ACMSD1 was determined by measuring the conversion of 3OH-Anthranilic Acid into product (i.e., ACMS) in a spectrophotometrical in vitro assay.
The pre-assay mixture consisting of 3-hydroxyanthranilic acid (3OH-HA), 3-hydroxyanthranilic acid, 3,4-diOxygenase (HAO), and a dialyzed crude extract of E. coli BL21 (DE3) cells expressing the recombinant enzyme, was incubated at 25° C. with monitoring of the increase in absorbance at 360 nm due to the formation of ACMS from 3OH-HA. After the reaction was completed within ˜2 mins, an aliquot of ACMSD1 solution (prepared and purified from Pichia Pastoris overexpressing the recombinant enzyme) was added, and the decrease in absorbance at 360 nm was followed at 15 second intervals. The effect of ACMS concentration on the enzyme activity was investigated by varying 3OH-HA concentration from 2 to 20 μM. Kinetic parameters were calculated from the initial velocity data by using the Lineweaver-Burk plot.
The rate of the decrease in absorbance caused by ACMSD1 was calculated by subtracting that of the control reaction mixture without ACMSD from that described above. One unit of ACMSD activity was indicated as the amount of enzyme that converts 1 mmol of ACMS per minute at 25° C. The absence or a reduction of ACMSD1 activity (e.g., by using ACMSD inhibitors) results in a slow ACMS-spontaneous degradation (i.e., cyclization to form quinolic acid).
The enzymatic activity was determined at a HAA concentration of 10 μM in the presence of the compounds in Table 1 below. The compounds were tested at the concentration of about 5 μM and 10 μM and the IC50 was calculated for compounds showing inhibitory activity higher than 50%.

[2] = molecular target: ACMSD-1 (Homo sapiens (Human), UniProt Q8TDX5); assay: ACMSD-1 modulation in HEK293T cells transiently expressing ACMSD; assay type: cell-based; settings: about 50 nM to about 5 uM; stimulated 48 hrs to 72 hrs
[3] = system: SIRT1-regulated genes in AML-12 cells; assay: RT-qPCR analysis of SIRT1-regulated genes in AML-12 cells; assay type: cell-based, mouse; settings: 24 hrs
Procedure: (§1) Cells (AML-12, Hepa-1.6, HEK-293, primary human and murine hepatocytes) are treated with different concentrations of a compound of Formula (I), Formula (Ia), Formula (Ib), Formula (II), or Formula (III), or a pharmaceutically acceptable salt thereof and the gene expression of ACMSD, Pgc1a, Sod1, and Sod2 (MnSOD) is determined using RT-qPCR. Total RNA is extracted from cells and the extracted RNA is treated with DNase and used for reverse transcription (RT).
(§2) Gene expression of ACMSD and genes known to be regulated by SIRT1, (an enzyme that is strictly NAD^+ dependent) such as Pgc1a, Sod1, Sod2 (MnSOD), were analysed in AML-12 cells, Hepa-1.6 cells and primary murine hepatocytes treated with Compound 1 or 17.
(§3) Cells (AML-12, Hepa-1.6, HEK-293, primary human and murine hepatocytes) were treated with different concentrations of Compound 1 or Compound 17. Total RNA was extracted from cells using TRIzol (Invitrogen) according to the manufacturer's instructions. The RNA was treated with DNase, and 2 μg of RNA was used for reverse transcription (RT). 50× diluted cDNA was used for RT-quantitative PCR (RT-qPCR) reactions. The RT-qPCR reactions were performed using the Light-Cycler system (Roche Applied Science) and a qPCR Supermix (QIAGEN) with the indicated primers. The average of at least three technical repeats was used for each biological data point.

[4] = system: SIRT1-regulated genes in Hepa-1.6 cells; assay: RT-qPCR analysis of SIRT1-regulated genes in Hepa-1.6 cells; assay type: cell-based; settings: Hepa-1.6 hepatic cell line, 24 hrs
Procedure: as §1, §2, §3

[5] = system: SOD2 activity in primary murine hepatocytes; assay: Modulation of SOD2 activity in murine primary hepatocytes; assay type: cell-based, mouse
Procedure: Primary hepatocytes or AML-12 cells are lysed and total protein concentration is determined using the Bradford assay. SOD2 activity is determined at indicated times after treatment with a compound of Formula (I), Formula (Ia), Formula (Ib), Formula (II), or Formula (III), or a pharmaceutically acceptable salt thereof, using a SOD Assay Kit. Absorbance is determined and results are expressed in U/ml/mg of protein according to the standard curve and measured protein concentration.
Primary hepatocytes were prepared from 8-12-week-old C57BL/6J mice by collagenase perfusion method. […] Cell viability was assessed by the trypan blue method. […]
Primary hepatocytes or AML-12 cells were then lysed in a 20 mM HEPES buffer (Gibco), pH 7.2, containing 1 mM EGTA (Sigma), 210 mM mannitol (Sigma), and 70 mM sucrose (AMRESCO). Total protein concentration was determined using the Bradford assay (BioRad). SOD-2 activity was determined at indicated times after ACMSD inhibitor treatment by the SOD Assay Kit (Cayman Chemical) according to the manufacturer's instructions. […] Absorbance was determined with a Victor X4 multi-label plate reader (Perkin-Elmer) at 450 nm. Results are expressed in U/ml/mg of protein according to the standard curve and measured protein concentration.

[6] = system: murine primary hepatocytes; assay: NAD+ content in murine primary hepatocytes (HPLC, mass spectrometry); assay type: cell-based, mouse; settings: 24 hours
Excerpt: NAD^+ is extracted using acidic extraction method and samples are collected and homogenized. After insoluble protein parts are pelleted, the samples are separated by high-performance liquid chromatography (HPLC) and analyzed by mass-spectrometry. The proteins in the pellet are quantified by Bradford assay and are used for normalization.
NAD^+ was extracted using acidic extraction method. Samples were collected and homogenized in 70% ice-cold perchloric acid (HClO4). After insoluble protein parts were pelleted by adding potassium carbonate (K2CO3), the samples were separated by high-performance liquid chromatography (HPLC) and analyzed by mass-spectrometry. The proteins in the pellet were quantified by Bradford assay and were used for normalization.

[7] = system: SIRT1-regulated genes (Pgc1a, Sod1, Sod2) in primary mouse hepatocytes; assay: RT-qPCR analysis of SIRT1-regulated genes in primary murine hepatocytes; assay type: cell-based; settings: 24 hrs, 5 nM-500 nM range
Procedure: as §1
Primary hepatocytes were prepared from 8-12-week-old C57BL/6J mice by collagenase perfusion method. Mouse livers were perfused with Hank's balanced salt solution (HBSS, KCl, 5.4 mM; KH2PO4, 0.45 mM; NaCl, 138 mM; NaHCO3, 4.2 mM; Na2HPO4, 0.34 mM; glucose, 5.5 mM; HEPES, 1 M; EGTA, 50 mM; CaCl2), 50 mM; pH 7.4). Livers were then washed at a rate of 5 ml/min through the portal vein. After washing, livers were perfused with collagenase (0.025%) solution. Cell viability was assessed by the trypan blue method. Isolated primary hepatocytes were plated with DMEM medium (Gibco) including 10% FCS, 10 units per ml penicillin and HEPES for buffering. The cells were maintained in culture at 37° C. in a humidified atmosphere of 5% CO2/95% air. After 6-8 hrs of attachment, this medium was replaced with media containing different concentrations of an ACMSD inhibitor (i.e., Compound 1 or Compound 17) or with the corresponding concentration of DMSO (as a control). Primary hepatocytes were harvested about 24 hrs later if not indicated differently.
as §2
Cells (AML-12, Hepa-1.6, HEK-293, primary human and murine hepatocytes) were treated with different concentrations of Compound 1 or Compound 17. Total RNA was extracted from cells using TRIzol (Invitrogen) according to the manufacturer's instructions. […] 50× diluted cDNA was used for RT-quantitative PCR (RT-qPCR) reactions. […]

Chain of hACMSD (ACMSD1) (Q8TDX5 whole entry): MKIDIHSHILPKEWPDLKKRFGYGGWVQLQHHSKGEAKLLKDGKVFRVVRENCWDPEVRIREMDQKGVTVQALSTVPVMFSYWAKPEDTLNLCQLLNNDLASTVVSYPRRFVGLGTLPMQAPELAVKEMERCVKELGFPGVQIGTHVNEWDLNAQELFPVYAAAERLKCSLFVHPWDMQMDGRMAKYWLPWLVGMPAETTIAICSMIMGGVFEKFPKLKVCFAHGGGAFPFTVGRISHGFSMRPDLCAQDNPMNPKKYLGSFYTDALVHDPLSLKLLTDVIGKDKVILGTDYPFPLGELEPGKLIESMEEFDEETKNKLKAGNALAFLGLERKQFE
Chain of ACMSD-1 (Q8TDX5 whole entry): as above

IC50 [1] [nM] | SMILES | ACMSD-1 activity in transfected HEK293T cells [2] | Sod2 mRNA levels [3] | Sod2 mRNA levels [4] | dose at which SOD2 effect reached a maximum [5] | lowest concentration with significant effect on NAD+ levels [6] [nM] | Pgc1a mRNA expression level [7] | Sod1 (Cu-Zn SOD) mRNA expression level [7] | Sod2 (MnSOD) mRNA expression level [7]
50 | N#Cc1c(-c2ccccc2)nc(SCc2cccc(C(=O)O)c2)[nH]c1=O [Compound 1] | inhibited ACMSD-1 activity, in a dose dependent manner | increased in a dose-dependent manner | increased in a dose-dependent manner |  |  |  |  | 
5 | N#Cc1c(-c2cccs2)nc(SCc2cccc(-c3nn[nH]n3)c2)[nH]c1=O [Compound 17] |  |  |  | about 50 nM | ≤ 5 | dose-dependent increase | but not Sod1 | dose-dependent increase
